What was measured:
[1] = molecular target: T1, PDGFR Alpha Receptor Kinase (PDGFRalpha) (Homo sapiens, UniProt P16234); assay: Determination of PDGFR alpha receptor kinase (PDGFRalpha) inhibitory activity (alpha screen); type: biochemical; conditions: PDGFRalpha intracellular domain protein, 25 μM ATP buffer; read-out: IC50 value (PDGFRalpha kinase inhibition)
T1 construct: PDGFRalpha intracellular domain protein (UPSTATE); purchased UPSTATE
Procedure: The test compound dissolved in dimethyl sulfoxide (DMSO) was diluted with a buffer (50 mM Tris-HCl, pH 7.5, 5 mM MgCl2, 5 mM MnCl2, 2 mM dithiothreitol, 0.01% Tween-20).
Acceptor beads: PerkinElmer for alpha screen assay) was added to quench the reaction. The reaction solution was stood at 25° C. for 16 hr, and the count was measured using a plate reader·Fusion™ (manufactured by PerkinElmer). The kinase inhibitory rate (%) of the test compound was calculated by the following formula.
(§1) Inhibitory rate(%)=(1−(count of test compound−blank)÷(control−blank))×100
(§2) wherein the count of the solution reacted without addition of the compound is “control” and the count of the solution without addition of the compound and ATP is “blank”.

[2] = system: Human umbilical vein endothelial cells (HUVEC); assay: Vascular endothelial cell growth inhibitory test; type: cell-based; conditions: Homo sapiens, 120 h, VEGF 120 ng/mL, culture 5 days, XTT reagent
Procedure: Human umbilical vein endothelial cells (HUVEC, purchased from KURABO) were cultured in a gas incubator (37° C., CO2 5%) in a vascular endothelial cell medium (Invitrogen) containing 5% fetal calf serum and a basic fibroblast growth factor (2.5 ng/mL). To be specific, HUVEC suspended in the aforementioned vascular endothelial cell medium (Invitrogen) containing 5% fetal calf serum were seeded into a 96 well flat-bottom plate (50 μL, 3000 cells each well). After culturing overnight, various concentrations of test substance and the final concentration (120 ng/mL) of vascular endothelial growth factor (VEGF) were dissolved in a vascular endothelial cell medium (Invitrogen) containing 5% fetal calf serum and added to each well (50 μL). After culturing for 5 days, an XTT reagent (Wako Pure Chemical Industries, Ltd.) was added to each well (10 μL), and reacted in a gas incubator (37° C., CO2 5%) for 2-3 hr. The absorbance at 450 nm was measured by a microtiter plate reader, and the cell growth inhibitory activity was determined.

[3] = molecular target: T2, PDGFRbeta Receptor Kinase (PDGFRbeta) (Homo sapiens, UniProt P09619); assay: Determination of PDGFRbeta receptor kinase (PDGFRbeta) inhibitory activity (alpha screen); type: biochemical; conditions: PDGFRbeta intracellular domain protein, 25 μM ATP buffer; read-out: IC50 value (PDGFRbeta kinase inhibition)
T2 construct: PDGFRbeta intracellular domain protein (UPSTATE); purchased UPSTATE
T2 sequence (P09619 554-1106 limits assumed): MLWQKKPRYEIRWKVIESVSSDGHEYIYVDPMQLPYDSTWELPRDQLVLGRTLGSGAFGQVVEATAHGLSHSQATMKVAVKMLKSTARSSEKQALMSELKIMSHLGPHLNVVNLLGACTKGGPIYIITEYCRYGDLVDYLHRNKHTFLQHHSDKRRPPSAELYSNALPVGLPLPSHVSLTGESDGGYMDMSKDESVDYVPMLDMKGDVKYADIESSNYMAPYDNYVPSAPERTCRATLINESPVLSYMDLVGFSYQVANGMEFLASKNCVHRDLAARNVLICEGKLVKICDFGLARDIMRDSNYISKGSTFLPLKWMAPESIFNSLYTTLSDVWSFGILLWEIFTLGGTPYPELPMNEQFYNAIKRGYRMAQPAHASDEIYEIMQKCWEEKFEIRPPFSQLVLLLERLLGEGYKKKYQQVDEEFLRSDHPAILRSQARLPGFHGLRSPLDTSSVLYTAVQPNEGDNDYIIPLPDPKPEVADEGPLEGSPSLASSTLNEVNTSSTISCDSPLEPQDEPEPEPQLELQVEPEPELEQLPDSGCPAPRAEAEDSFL
Procedure: The test compound dissolved in dimethyl sulfoxide (DMSO) was diluted with a buffer (50 mM Tris-HCl, pH 7.5, 5 mM MgCl2, 5 mM MnCl2, 2 mM dithiothreitol, 0.01% Tween-20). A buffer (10 μl) containing 125 ng/ml PDGFRbeta intracellular domain protein (UPSTATE) and 250 ng/ml biotin-labeled polypeptide biotinyl-poly-Glu:Tyr (4:1) (CIS Bio International) was added to the compound solution (5 μl). At 5 min after mixing a kinase enzyme, the compound and a biotin-labeled polypeptide, a buffer (10 μl) containing 25 μM ATP was added to the obtained mixture, the mixture was allowed to react at 25° C. for 30 min. Then, 25 μl of a stop solution (100 mM EDTA·2 sodium salt, 62.5 mM HEPES buffer (pH 7.4), 250 mM NaCl, 0.1% bovine serum albumin, 10 μg/ml Streptavidin Donor beads: PerkinElmer for alpha screen assay, 10 μg/ml Anti-phosphotyrosine (P-Tyr-66) Acceptor beads: PerkinElmer for alpha screen assay) was added to quench the reaction. The reaction solution was stood at 25° C. for 16 hr, and the count was measured using a plate reader·Fusion™ (manufactured by PerkinElmer). The kinase inhibitory rate (%) of the test compound was calculated by the following formula.
as §1, §2

T1 sequence (P16234 550-1089 limits assumed): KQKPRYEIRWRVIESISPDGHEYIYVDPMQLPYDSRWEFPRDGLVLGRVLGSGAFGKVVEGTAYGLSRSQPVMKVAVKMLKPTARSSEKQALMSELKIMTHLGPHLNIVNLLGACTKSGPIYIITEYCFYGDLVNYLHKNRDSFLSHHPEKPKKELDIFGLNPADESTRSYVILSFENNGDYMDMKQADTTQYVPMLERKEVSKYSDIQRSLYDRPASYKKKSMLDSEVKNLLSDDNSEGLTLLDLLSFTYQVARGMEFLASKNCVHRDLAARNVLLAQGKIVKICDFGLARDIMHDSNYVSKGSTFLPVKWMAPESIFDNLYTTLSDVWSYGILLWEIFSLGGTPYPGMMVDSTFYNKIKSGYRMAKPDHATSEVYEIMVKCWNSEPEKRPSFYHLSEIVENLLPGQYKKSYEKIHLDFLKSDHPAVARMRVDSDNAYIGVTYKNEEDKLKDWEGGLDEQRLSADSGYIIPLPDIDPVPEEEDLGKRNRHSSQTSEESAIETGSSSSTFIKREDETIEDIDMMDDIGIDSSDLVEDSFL

IC50 [1]	IC50 [3]	SMILES	IC50 [2]
≤ 500 nM	≤ 500 nM	Cn1ccc2ncnc(Oc3ccc(NC(=O)Nc4cccc(C(F)(F)F)c4)c(Cl)c3)c21 [Example 15, N-{2-chloro-4-[(5-methyl-5H-pyrrolo[3,2-d]pyrimidin-4-yl)oxy]phenyl}-N′-[3-(trifluoromethyl)phenyl]urea]	8.2 nM
≤ 500 nM	≤ 500 nM	Cn1ccc2ncnc(Oc3ccc(NC(=O)Nc4cccc(OC(F)(F)F)c4)c(Cl)c3)c21 [Example 20, N-{2-chloro-4-[(5-methyl-5H-pyrrolo[3,2-d]pyrimidin-4-yl)oxy]phenyl}-N′-[3-(trifluoromethoxy)phenyl]urea]	6.6 nM
≤ 500 nM	≤ 500 nM	Cc1cc(Oc2ncnc3ccn(C)c23)ccc1NC(=O)Nc1cccc(C(F)(F)F)c1 [Example 41, N-{2-methyl-4-[(5-methyl-5H-pyrrolo[3,2-d]pyrimidin-4-yl)oxy]phenyl}-N′-[3-(trifluoromethyl)phenyl]urea]	19 nM
≤ 500 nM	≤ 500 nM	CCn1ccc2ncnc(Oc3ccc(NC(=O)Nc4cccc(C(F)(F)F)c4)c(Cl)c3)c21 [Example 47, N-{2-chloro-4-[(5-ethyl-5H-pyrrolo[3,2-d]pyrimidin-4-yl)oxy]phenyl}-N′-[3-(trifluoromethyl)phenyl]urea]	11 nM
